# Values quoted from earlier work, collected in patent US20230404937A1, “NOVEL DISINTEGRATION ORAL FILM FORMULATION WITH A CONTROLLED OR SUSTAINED ACTIVE RELEASE” (INTELGENX CORP., priority 2022, published 2023).
# Details: when orally ingested; first metabolized in the liver
smiles,measurement,value
"CCCCCc1cc(O)c2c(c1)OC(C)(C)[C@@H]1CCC(C)=C[C@@H]21 [THC, tetrahydrocannabinol]",oral bioavailability,5%
